“And” between values parts separate entries of the source, which are not always exact repeats. Equal entries are not always repeated.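 Interpolation was linear, between the two tested concentrations surrounding the appropriate level; five concentrations were tested over 48 hours in 96-well plates. Abbreviation: GI50, concentration required for 50% inhibition of growth. Definition used: TGI = concentration required for complete inhibition of growth.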

Test systems include SR leukemia; RPMI-8226 leukemia; UO-31 renal; SK-MEL-5 melanoma; M14 melanoma; HCC-2998 colon; SK-MEL-2 melanoma; PC-3 prostate; OVCAR-8 ovarian; OVCAR-5 ovarian.
What all share (test): DTP human tumour cell line panel, 48 h

The term GI50 denotes the concentration that inhibits growth by half. The term TGI denotes the concentration giving total growth inhibition. Higher therefore signals lower sensitivity of the cells. Consider `CC(CCC/C=C/CCCN(C)C(=N)N)CC(C)C1OC(=O)C(C)C(O)/C=C/C(C)C(O)C(C)C(O)C(C)C(O)CCCC(O)CC2(O)OC(CC(OC(=O)CC(=O)O)CC(O)CC(O)C(C)C(O)/C=C/C=C/C1C)CC(O)C2O` (stereo not drawn), for which the GI50 in the experiment with SR leukemia was 2.59 µM and 3.67 µg/mL; in the experiment with RPMI-8226 leukemia, 2.71 µM and 9.09 µg/mL; in the experiment on UO-31 renal it was 3.36 µM and 14.5 µg/mL; with SK-MEL-5 melanoma, 1.75 µM and 1.48 µg/mL; in the experiment on M14 melanoma, 2.51 µM and 9.44 µg/mL; in the experiment with HCC-2998 colon, 3.18 µM and 10.9 µg/mL. Also, the GI50 in the experiment on SK-MEL-2 melanoma was 7.22 µM and 10.2 µg/mL; in the experiment on PC-3 prostate it was 3.09 µM and 4.86 µg/mL; in the experiment on OVCAR-8 ovarian it was 2.54 µM and 7.93 µg/mL; in the experiment on OVCAR-5 ovarian, 14.4 µM and 13.5 µg/mL. Further, the TGI in the experiment with SR leukemia was 4.88 µM and 47 µg/mL; in the experiment on RPMI-8226 leukemia it was 10.5 µM and 28 µg/mL; with UO-31 renal, 8.6 µM and 26.1 µg/mL; in the experiment on SK-MEL-5 melanoma, 3.18 µM and 3.33 µg/mL; in the experiment with M14 melanoma, 6.32 µM and 23.9 µg/mL; with HCC-2998 colon, 12.1 µM and 23.4 µg/mL. Further, the TGI is 23 µM and 20.5 µg/mL in the experiment with SK-MEL-2 melanoma; 11.5 µM and 16 µg/mL with PC-3 prostate; 5.88 µM and 19.8 µg/mL in the experiment on OVCAR-8 ovarian; 29.9 µM and 26.1 µg/mL in the experiment with OVCAR-5 ovarian.

As to `C=C1C(=O)O[C@H]2[C@H]1CC/C(Cn1cc(CNC(=O)c3cc4ccccc4[nH]3)nn1)=C\CC[C@@]1(C)O[C@@H]21`, the GI50 is 2.69 µM in the experiment on SR leukemia; 3.37 µM with RPMI-8226 leukemia; 10.4 µM with UO-31 renal; 8.1 µM with SK-MEL-5 melanoma; 2.09 µM in the experiment on M14 melanoma; 14 µM with HCC-2998 colon. Moreover, the GI50 in the experiment on SK-MEL-2 melanoma was 6.43 µM; in the experiment with PC-3 prostate, 1.88 µM; in the experiment on OVCAR-8 ovarian, 4.69 µM; in the experiment on OVCAR-5 ovarian it was 2.51 µM. The TGI in the experiment on SR leukemia was determined as 25.7 µM; in the experiment on RPMI-8226 leukemia, 9.34 µM; with UO-31 renal, 22.1 µM; with SK-MEL-5 melanoma it was 23.4 µM; in the experiment with M14 melanoma it was 6.27 µM; in the experiment on HCC-2998 colon it was 31.5 µM. In addition, the TGI is 23 µM in the experiment on SK-MEL-2 melanoma, 4.79 µM in the experiment with PC-3 prostate, 17.2 µM with OVCAR-8 ovarian and 9.07 µM in the experiment with OVCAR-5 ovarian.

For `Cc1cccc(NC(=O)c2sc3nc4c(cc3c2N)CCC4)c1C`, the concentration for 50% growth inhibition (GI50) in the experiment on SR leukemia is 0.191 µM; in the experiment on RPMI-8226 leukemia, 0.346 µM; in the experiment on UO-31 renal, 0.615 µM; with SK-MEL-5 melanoma it was 0.268 µM; in the experiment with M14 melanoma, 0.236 µM; in the experiment on HCC-2998 colon, 0.687 µM. Further, the GI50 in the experiment on SK-MEL-2 melanoma is 0.31 µM; in the experiment on PC-3 prostate it was 0.369 µM; in the experiment on OVCAR-8 ovarian, 0.427 µM; with OVCAR-5 ovarian, 0.531 µM. For the same compound, the TGI was 10.2 µM with SR leukemia; 16.2 µM in the experiment with RPMI-8226 leukemia; more than 100 µM in the experiment on UO-31 renal; 11.1 µM in the experiment with SK-MEL-5 melanoma; 2.4 µM in the experiment on M14 melanoma; 22.5 µM in the experiment with HCC-2998 colon. Moreover, the TGI came to 17.9 µM in the experiment with SK-MEL-2 melanoma, 15.7 µM in the experiment on PC-3 prostate, 16.6 µM with OVCAR-8 ovarian and 62.6 µM in the experiment with OVCAR-5 ovarian.

Consider `CCN(CC)CCC(CNc1c2ccc(Cl)cc2nc2ccc(OC)cc12)c1ccccc1` (stereo not drawn), for which the GI50 is 0.323 µM in the experiment with SR leukemia; 1.33 µM with RPMI-8226 leukemia; 1.3 µM in the experiment with UO-31 renal; 1.7 µM with SK-MEL-5 melanoma; 1.78 µM in the experiment with M14 melanoma; 1.09 µM in the experiment with HCC-2998 colon. The GI50 was 1.76 µM in the experiment on SK-MEL-2 melanoma, 1.96 µM in the experiment with PC-3 prostate, 1.26 µM with OVCAR-8 ovarian and 1.94 µM with OVCAR-5 ovarian. Also, the TGI in the experiment with SR leukemia turned out to be 1.18 µM; in the experiment with RPMI-8226 leukemia, 3.85 µM; in the experiment with UO-31 renal, 3.27 µM; in the experiment on SK-MEL-5 melanoma it was 3.11 µM; in the experiment on M14 melanoma it was 3.44 µM; with HCC-2998 colon, 2.39 µM. The TGI in the experiment with SK-MEL-2 melanoma stood at 3.31 µM; in the experiment on PC-3 prostate, 6.16 µM; with OVCAR-8 ovarian, 3.6 µM; with OVCAR-5 ovarian, 5.64 µM.

For the compound `Cn1c([N+](=O)[O-])cnc1/C=C1\Oc2ccc(Cl)cc2C1=O`, the GI50 in the experiment on SR leukemia is 0.0676 µM; in the experiment with RPMI-8226 leukemia, 0.985 µM; in the experiment on UO-31 renal, 0.394 µM; in the experiment with SK-MEL-5 melanoma, 0.727 µM; in the experiment on M14 melanoma it was 0.636 µM; with HCC-2998 colon, 2.02 µM. Besides, the GI50 in the experiment with SK-MEL-2 melanoma is 0.901 µM; in the experiment on PC-3 prostate it was 1.12 µM; in the experiment with OVCAR-8 ovarian, 0.33 µM; in the experiment on OVCAR-5 ovarian it was 2.16 µM. In addition, the TGI in the experiment on RPMI-8226 leukemia was determined as 5.58 µM; in the experiment on UO-31 renal it was 2.97 µM; with SK-MEL-5 melanoma, 2.14 µM; in the experiment with M14 melanoma, 4.26 µM; with HCC-2998 colon, 4.68 µM; in the experiment on SK-MEL-2 melanoma, 3.04 µM. The TGI was 7.1 µM in the experiment on PC-3 prostate and 6.53 µM with OVCAR-5 ovarian.

As for `C[CH2][Ge]1([CH2]C)[CH2]CC2(CCN(CCCN(C)C)C2)C[CH2]1`, the GI50 in the experiment on SR leukemia was 0.231 µM; in the experiment on RPMI-8226 leukemia, 0.234 µM and 1.47 µM; in the experiment with UO-31 renal, 1.22 µM and 1.91 µM; in the experiment on SK-MEL-5 melanoma it was 0.444 µM and 1.44 µM; in the experiment on M14 melanoma it was 0.333 µM; in the experiment on HCC-2998 colon, 0.21 µM and 1.68 µM. Moreover, the GI50 is 0.616 µM in the experiment on SK-MEL-2 melanoma; 1.8 µM in the experiment on PC-3 prostate; 1.7 µM and 1.25 µM with OVCAR-8 ovarian; 1.84 µM and 2.45 µM in the experiment with OVCAR-5 ovarian. Further, the TGI is 1.25 µM in the experiment with SR leukemia; 0.976 µM and 2.52 µM in the experiment with RPMI-8226 leukemia; 2.48 µM and 3.68 µM in the experiment with UO-31 renal; 1.13 µM and 2.22 µM in the experiment on SK-MEL-5 melanoma; 0.624 µM with M14 melanoma; 0.543 µM and 3.8 µM in the experiment with HCC-2998 colon. Also, the TGI was 1.32 µM in the experiment with SK-MEL-2 melanoma; 4.44 µM and 1.34 µM in the experiment on PC-3 prostate; 4.05 µM and 1.73 µM in the experiment on OVCAR-8 ovarian; 3.8 µM and 5.19 µM with OVCAR-5 ovarian.

On to `COC(=O)c1cc(CNCCc2c[nH]c3ccccc23)on1`, for which the TGI in the experiment with SR leukemia, in the experiment on RPMI-8226 leukemia, with UO-31 renal, in the experiment on SK-MEL-5 melanoma, in the experiment with M14 melanoma and in the experiment on HCC-2998 colon was more than 100 µM in each case. The TGI with SK-MEL-2 melanoma, in the experiment with PC-3 prostate, in the experiment on OVCAR-8 ovarian and with OVCAR-5 ovarian was more than 100 µM throughout.

`O=C(/C=C\c1ccc(Cl)c(Cl)c1)c1ccccc1`: the GI50 in the experiment on SR leukemia is 2.75 µM; in the experiment with RPMI-8226 leukemia, 2.11 µM; in the experiment with UO-31 renal, 4.09 µM; with SK-MEL-5 melanoma, 16.7 µM; in the experiment on M14 melanoma it was 7.37 µM; with HCC-2998 colon, 4.75 µM. For the same compound, the GI50 with SK-MEL-2 melanoma was 13.8 µM; with PC-3 prostate it was 5.93 µM; with OVCAR-8 ovarian, 3.98 µM; in the experiment with OVCAR-5 ovarian, 15.3 µM. Further, the TGI in the experiment on SR leukemia stood at 9.22 µM; in the experiment with RPMI-8226 leukemia, 4.86 µM; with UO-31 renal, 16.7 µM; in the experiment on SK-MEL-5 melanoma it was 30.9 µM; in the experiment on M14 melanoma, 21.5 µM; in the experiment on HCC-2998 colon, 16.9 µM. Further, the total growth inhibition concentration (TGI) in the experiment on SK-MEL-2 melanoma was found to be 27.4 µM; in the experiment with PC-3 prostate, 20.7 µM; in the experiment on OVCAR-8 ovarian it was 15.1 µM; in the experiment with OVCAR-5 ovarian, 31.3 µM.

Consider `C#Cc1cccc(NC(=O)Nc2cccc(NC(=O)CCl)c2)c1`, for which the GI50 with SR leukemia was 12.9 µM; in the experiment with RPMI-8226 leukemia, 12.5 µM; in the experiment with UO-31 renal, more than 82.5 µM; with SK-MEL-5 melanoma, 15.7 µM; in the experiment with M14 melanoma, 23.6 µM; in the experiment with HCC-2998 colon it was more than 82.5 µM. Further, the GI50 in the experiment on SK-MEL-2 melanoma was 32.7 µM; in the experiment on PC-3 prostate, 37.8 µM; with OVCAR-8 ovarian it was 23.1 µM; with OVCAR-5 ovarian, 21.9 µM. Also, the TGI in the experiment on SR leukemia was more than 82.5 µM; in the experiment on RPMI-8226 leukemia it was 48.3 µM; in the experiment on UO-31 renal it was more than 82.5 µM; in the experiment with SK-MEL-5 melanoma, 36.2 µM; in the experiment on M14 melanoma, more than 82.5 µM; in the experiment on HCC-2998 colon, more than 82.5 µM. In addition, the concentration for total growth inhibition (TGI) with SK-MEL-2 melanoma is more than 82.5 µM; in the experiment on PC-3 prostate, more than 82.5 µM; in the experiment on OVCAR-8 ovarian it was more than 82.5 µM; in the experiment with OVCAR-5 ovarian it was 63.9 µM.

Turning to `Cc1nn(-c2ccccc2)c2ncc3c(c12)C(=O)N(Cc1ccccc1)C3=O`, the GI50 in the experiment with SR leukemia was 5.86 µM; with RPMI-8226 leukemia, 3.61 µM; with UO-31 renal it was 2.65 µM; in the experiment with SK-MEL-5 melanoma it was more than 100 µM; in the experiment with M14 melanoma, 4.98 µM; in the experiment on HCC-2998 colon it was more than 100 µM. The GI50 in the experiment with SK-MEL-2 melanoma was 13.7 µM; in the experiment with PC-3 prostate, 10.1 µM; with OVCAR-8 ovarian, 5.14 µM; with OVCAR-5 ovarian, more than 100 µM. The TGI is more than 100 µM in the experiment with SR leukemia; 31.8 µM in the experiment on RPMI-8226 leukemia; 8.17 µM in the experiment with UO-31 renal; more than 100 µM with SK-MEL-5 melanoma; more than 100 µM with M14 melanoma; more than 100 µM in the experiment with HCC-2998 colon. The concentration for total growth inhibition (TGI) with SK-MEL-2 melanoma is 31.5 µM; with PC-3 prostate, more than 100 µM; with OVCAR-8 ovarian, more than 100 µM; in the experiment on OVCAR-5 ovarian, more than 100 µM.

(Values after PubChem BioAssay (NCI).)
